Laboratory results reported in US12637468B2, “Substituted [1,2,4]triazolo[4,3-b]pyridazines as GABAA receptor modulators” (SHANGHAI SIMR BIOTECHNOLOGY CO., LTD., priority 2019, dated 2026).
In brackets after ≈: the same amount, converted by molar mass.

Experiments:
[1] = biological target: T1, α5-GABAA receptor (Homo sapiens, UniProt P18507+P31644); assay: Cell-level screening: whole cell patch clamp, inverse agonist efficacy on α5-GABAA receptor expressed in HEK293; format: cell-based; details: drug 100 nM, GABA 0.05 μM, HEK293 expressing α5, β3 and γ2 subunits, clamped at −60 mV; read-out: Compound inverse agonist efficacy %
T1 construct: expressed in transfected cells; host or cells: HEK293, monoclonal stably transfected line
How it was run: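 Whole-cell patch clamp at −60 mV on HEK293 stably expressing α5β3γ2, pH 7.4 extracellular/CsCl internal solutions. Current evoked by 0.05 μM GABA, then compound in GABA solution; screening at 100 nM, dose-response 0.3–300 nM. Inverse agonist efficacy as % change of GABA current.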

[2] = Thermodynamic solubility in simulated intestinal fluid (TS in FaSSIF); format: physicochemical; details: thermodynamic from solid, 37° C.
How it was run: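 About 0.3 mg solid shaken in 1.5 mL FaSSIF-V2 at 1000 rpm, 37° C, 4 hours, in duplicate, then filtered. Filtrate quantified by HPLC-UV against 1 μM-200 μM standards diluted from 10 mM DMSO stock.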

T1 sequence (P31644 32-462): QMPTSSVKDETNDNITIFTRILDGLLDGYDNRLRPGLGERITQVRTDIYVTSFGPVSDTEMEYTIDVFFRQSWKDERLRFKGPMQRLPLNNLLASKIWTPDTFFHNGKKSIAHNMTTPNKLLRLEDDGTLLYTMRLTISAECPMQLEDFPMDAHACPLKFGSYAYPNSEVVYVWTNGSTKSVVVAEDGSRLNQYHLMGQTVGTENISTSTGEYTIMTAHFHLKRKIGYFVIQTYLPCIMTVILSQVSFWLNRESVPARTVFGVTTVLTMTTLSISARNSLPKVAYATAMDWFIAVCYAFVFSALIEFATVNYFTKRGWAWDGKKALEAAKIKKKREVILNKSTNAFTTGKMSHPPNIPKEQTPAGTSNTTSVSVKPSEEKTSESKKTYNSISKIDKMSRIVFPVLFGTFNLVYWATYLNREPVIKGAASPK
T1 sequence (P28472 26-473 partner): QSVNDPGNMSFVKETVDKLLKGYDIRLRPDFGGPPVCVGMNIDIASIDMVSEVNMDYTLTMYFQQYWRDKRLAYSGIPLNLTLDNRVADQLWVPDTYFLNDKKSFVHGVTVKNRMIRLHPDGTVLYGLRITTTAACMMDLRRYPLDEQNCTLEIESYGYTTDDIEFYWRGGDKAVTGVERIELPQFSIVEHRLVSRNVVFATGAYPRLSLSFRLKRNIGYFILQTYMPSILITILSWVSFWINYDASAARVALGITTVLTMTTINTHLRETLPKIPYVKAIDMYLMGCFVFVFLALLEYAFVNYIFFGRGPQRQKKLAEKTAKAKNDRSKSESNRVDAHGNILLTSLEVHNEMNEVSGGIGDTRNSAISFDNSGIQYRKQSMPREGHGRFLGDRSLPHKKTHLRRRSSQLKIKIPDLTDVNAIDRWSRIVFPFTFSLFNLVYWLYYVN
T1 sequence (P18507 40-467 isoform P18507-1 limits assumed): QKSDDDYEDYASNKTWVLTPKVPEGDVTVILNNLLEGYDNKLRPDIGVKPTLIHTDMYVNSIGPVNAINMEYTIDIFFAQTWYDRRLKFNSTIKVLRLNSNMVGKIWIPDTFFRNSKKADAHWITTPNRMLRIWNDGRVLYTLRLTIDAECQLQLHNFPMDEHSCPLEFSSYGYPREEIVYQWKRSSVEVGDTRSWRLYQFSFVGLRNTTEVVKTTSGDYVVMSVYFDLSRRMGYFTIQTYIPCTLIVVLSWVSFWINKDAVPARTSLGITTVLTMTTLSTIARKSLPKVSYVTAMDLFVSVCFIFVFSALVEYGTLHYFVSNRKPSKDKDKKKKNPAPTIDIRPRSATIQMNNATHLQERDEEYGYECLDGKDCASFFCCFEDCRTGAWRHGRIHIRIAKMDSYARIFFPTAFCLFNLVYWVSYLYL

SMILES | inhibition at 0.1 µM [1] | solubility thermodynamic at 4 h [2]
COc1cc2nnc(-c3cc(C)on3)n2nc1OCc1ccc2c(n1)CCN(C(CO)CO)C2 [Embodiment 185] | 45.6% | 239 µg/mL (≈ 511 µM)
COc1cc2nnc(-c3cc(C)on3)n2nc1OCc1ccc2c(n1)CCN(Cc1cc(C)on1)C2 [Embodiment 187] | 50.4% | 176 µg/mL (≈ 361 µM)
COc1cc2nnc(-c3cc(C)on3)n2nc1OCc1ccc(OC2CCOC2)nn1 (stereo not shown) [Embodiment 154] | 45.2% | 177 µg/mL (≈ 416 µM)
COc1cc2nnc(-c3cc(C)on3)n2nc1OCc1ccc(OC2COC2)nn1 [Embodiment 153] | 49.4% | 189 µg/mL (≈ 460 µM)
COCc1ccc(COc2nn3c(-c4cc(C)on4)nnc3cc2OC)nn1 [Embodiment 151] | 55.8% | 175 µg/mL (≈ 456 µM)
COc1cc2nnc(-c3cc(C)on3)n2nc1OCc1ccc2c(n1)CCN(C1COC1)C2 [Embodiment 84, 3-(7-Methoxy-6-((6-(oxetan-3-yl)-5,6,7,8-tetrahydro-1,6-naphthyridin-2-yl)methoxy)-[1,2,4]triazolo[4,3-b]pyridazin-3-yl)-5-methylisoxazole] | 39.6% | 197 µg/mL (≈ 438 µM)
COCc1cn2nc(COc3nn4c(-c5cc(C)on5)nnc4cc3OC)ccc2n1 [Embodiment 213] | 59.5% | 30.2 µg/mL (≈ 71.4 µM)
COc1cc2nnc(-c3cc(C)on3)n2nc1OCc1ccc(C2(F)CN(C3COC3)C2)cn1 [Embodiment 128] | 41.2% | 118 µg/mL (≈ 253 µM)
COCCOCc1ccc(COc2nn3c(-c4cc(C)on4)nnc3cc2OC)nn1 [Embodiment 166] | 49.9% | 300 µg/mL (≈ 702 µM)
COc1cc2nnc(-c3cc(C)on3)n2nc1OCc1ccc2c(n1)CCN(C1CCOCC1)C2 [Embodiment 186] | 56% | 95.4 µg/mL (≈ 200 µM)
COc1cc2nnc(-c3cc(C)on3)n2nc1OCc1ccc(OC2CCOCC2)nn1 [Embodiment 152] | 39.3% | 44 µg/mL (≈ 100 µM)
COCCCOc1ccc(COc2nn3c(-c4noc(C)n4)nnc3cc2OC)nn1 [Embodiment 129] | 45.8% | 85.4 µg/mL (≈ 199 µM)
COc1cc2nnc(-c3cc(C)on3)n2nc1OCc1ccc2c(n1)CN(C)C2 [Embodiment 160, 3-(7-Methoxy-6-((6-methyl-6,7-dihydro-5H-pyrrolo[3,4-b]pyridin-2-yl)methoxy)-[1,2,4]triazolo[4,3-b]pyridazin-3-yl)-5-methylisoxazole] | 49.3% | 246 µg/mL (≈ 625 µM)
COc1cc2nnc(-c3cc(C)on3)n2nc1OCc1ccc2c(n1)CN(C1CCOCC1)C2 [Embodiment 253] | 56.1% | 38.9 µg/mL (≈ 83.9 µM)
